Drawing on patent publication US7928107B2, “Quinazolines useful as modulators of ion channels” (Vertex Pharmaceuticals Incorporated, priority 2004, dated 2011), this text covers IC50 for 27 molecules.

For the assay, the target named is NaV 1.8 channel (Homo sapiens, UniProt Q9Y5Y9). Kind of assay: Activity against NaV 1.8 channel (optical membrane potential assay). It counts as cell-based. A digest of the protocol: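 FRET membrane-potential assay (coumarin CC2-DMPE donor, oxonol DiSBAC2(3) acceptor plus veratridine) on VIPR; compound added with oxonol for 20–30 min before Na+ add-back stimulation. Activity from background-subtracted 460/580 nm ratio change (baseline 2–7 s, response 15–24 s) relative to tetracaine positive and drug-free negative controls.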
Sequence of NaV 1.8 channel (Q9Y5Y9 whole entry): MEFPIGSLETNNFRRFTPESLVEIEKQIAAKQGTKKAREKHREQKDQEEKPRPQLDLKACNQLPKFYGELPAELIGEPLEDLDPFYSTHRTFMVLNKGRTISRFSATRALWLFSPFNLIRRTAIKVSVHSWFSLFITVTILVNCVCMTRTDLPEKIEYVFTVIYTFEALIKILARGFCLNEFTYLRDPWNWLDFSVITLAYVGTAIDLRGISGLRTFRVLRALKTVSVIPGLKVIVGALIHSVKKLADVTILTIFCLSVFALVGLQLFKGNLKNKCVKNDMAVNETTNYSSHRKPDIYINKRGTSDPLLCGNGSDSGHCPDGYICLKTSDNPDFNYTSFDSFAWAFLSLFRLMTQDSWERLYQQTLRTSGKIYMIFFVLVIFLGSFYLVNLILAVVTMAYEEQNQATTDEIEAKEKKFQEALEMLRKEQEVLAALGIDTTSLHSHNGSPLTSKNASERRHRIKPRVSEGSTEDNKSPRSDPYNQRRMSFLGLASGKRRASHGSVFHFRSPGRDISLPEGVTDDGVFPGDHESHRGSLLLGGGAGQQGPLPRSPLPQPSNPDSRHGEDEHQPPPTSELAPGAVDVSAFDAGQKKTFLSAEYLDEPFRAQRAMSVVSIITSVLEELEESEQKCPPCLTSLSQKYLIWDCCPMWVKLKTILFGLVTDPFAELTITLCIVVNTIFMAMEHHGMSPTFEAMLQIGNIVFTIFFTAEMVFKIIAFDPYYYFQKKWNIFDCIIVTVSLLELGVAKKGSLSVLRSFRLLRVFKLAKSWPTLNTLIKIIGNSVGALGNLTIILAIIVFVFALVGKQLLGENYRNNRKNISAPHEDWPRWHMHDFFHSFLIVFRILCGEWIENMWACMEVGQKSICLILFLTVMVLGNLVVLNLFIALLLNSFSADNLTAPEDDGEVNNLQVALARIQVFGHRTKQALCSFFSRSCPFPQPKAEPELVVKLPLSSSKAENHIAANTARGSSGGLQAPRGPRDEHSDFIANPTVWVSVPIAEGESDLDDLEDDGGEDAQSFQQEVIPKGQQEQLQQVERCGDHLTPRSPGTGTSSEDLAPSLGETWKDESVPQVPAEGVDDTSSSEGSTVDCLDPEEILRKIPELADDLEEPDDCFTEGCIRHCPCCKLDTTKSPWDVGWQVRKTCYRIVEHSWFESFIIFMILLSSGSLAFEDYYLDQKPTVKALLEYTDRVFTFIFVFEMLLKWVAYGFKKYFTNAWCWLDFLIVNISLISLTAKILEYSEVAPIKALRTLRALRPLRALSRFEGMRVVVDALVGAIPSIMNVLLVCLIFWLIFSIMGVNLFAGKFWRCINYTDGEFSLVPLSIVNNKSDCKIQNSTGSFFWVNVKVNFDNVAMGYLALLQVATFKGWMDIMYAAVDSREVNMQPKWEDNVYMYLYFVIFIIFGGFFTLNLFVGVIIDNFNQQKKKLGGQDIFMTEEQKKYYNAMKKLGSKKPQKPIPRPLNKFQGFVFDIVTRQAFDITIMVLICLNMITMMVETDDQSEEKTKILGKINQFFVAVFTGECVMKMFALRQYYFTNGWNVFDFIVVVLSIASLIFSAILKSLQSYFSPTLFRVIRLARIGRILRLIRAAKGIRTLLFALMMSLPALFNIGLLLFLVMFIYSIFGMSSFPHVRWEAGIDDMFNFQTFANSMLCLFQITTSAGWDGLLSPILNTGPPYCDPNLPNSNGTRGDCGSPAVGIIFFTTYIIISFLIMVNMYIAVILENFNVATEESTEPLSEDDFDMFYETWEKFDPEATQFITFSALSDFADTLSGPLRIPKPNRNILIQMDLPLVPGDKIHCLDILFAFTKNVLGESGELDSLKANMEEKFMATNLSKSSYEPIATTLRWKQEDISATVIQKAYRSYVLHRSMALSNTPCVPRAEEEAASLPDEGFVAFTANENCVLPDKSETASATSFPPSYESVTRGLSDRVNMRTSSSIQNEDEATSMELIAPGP

In the case of `Cc1ccc2c(N3CCC(CNC(=O)OCC(C)C)CC3)nc(-c3ccccc3O)nc2c1` [Example 278], the half-maximal inhibitory concentration (IC50) was over 10 µM. In the case of `CC(C)C[C@@H](O)C(=O)N1CCN(c2nc(-c3ccccc3O)nc3cc(C(=O)O)ccc23)CC1` [Example 123, 4-[4-((R)-2-Hydroxy-4-methyl-pentanoyl)-piperazin-1-yl]-2-(2-hydroxy-phenyl)-quinazoline-7-carboxylic acid] it was over 10 µM; in that of `Cc1ccc2c(N3CCN(C(=O)C(O)c4ccc(F)cc4)CC3)nc(-c3c(O)cccc3F)nc2c1` (stereo not drawn) [Example 167, 1-(4-(2-(2-Fluoro-6-hydroxyphenyl)-7-methylquinazolin-4-yl)piperazin-1-yl)-2-(4-fluorophenyl)-2-hydroxyethanone], over 10 µM. The figure for `Cc1ccc2c(N3CCC(NC(=O)[C@H]4CCCO4)CC3)nc(-c3c(C)cccc3O)nc2c1` [Example 218, (2R)-Tetrahydro-N-(1-(2-(2-hydroxy-6-methylphenyl)-7-methylquinazolin-4-yl)piperidin-4-yl)furan-2-carboxamide] is 2 to 10 µM; for `Cc1ccc2c(N3CCN(C(=O)OCc4ccncc4)CC3)nc(-c3c(O)cccc3F)nc2c1` [Example 114, (Pyridin-4-yl)methyl 4-(2-(2-fluoro-6-hydroxyphenyl)-7-methylquinazolin-4-yl)piperazine-1-carboxylate] it is 2 to 10 µM; for `CCC(O)(CC)C(=O)N1CCN(c2nc(-c3ccccc3O)nc3cc(C)ccc23)CC1` [Example 122, 2-Ethyl-2-hydroxy-1-(4-(2-(2-hydroxyphenyl)-7-methylquinazolin-4-yl)piperazin-1-yl)butan-1-one] it is 2 to 10 µM. The figure for `O=C(OCc1cccc2c1OCO2)N1CCN(c2nc(-c3ccccc3O)nc3ccccc23)CC1` [Example 140, (Benzo[d][1,3]dioxol-7-yl)methyl 4-(2-(2-hydroxyphenyl)quinazolin-4-yl)piperazine-1-carboxylate] is over 10 µM; for `CC(C)(C)[C@H](O)C(=O)N1CCN(c2nc(-c3ccccc3O)nc3ccc(F)cc23)CC1` [Example 139, (S)-1-(4-(6-Fluoro-2-(2-hydroxyphenyl)quinazolin-4-yl)piperazin-1-yl)-2-hydroxy-3,3-dimethylbutan-1-one] it is 2 to 10 µM; for `Cc1ccc2c(N3CC[C@@H](NC(=O)C(O)c4ccc(F)cc4)C3)nc(-c3c(O)cccc3F)nc2c1` (stereo partly drawn) [Example 359, N—((R)-1-(2-(2-Fluoro-6-hydroxyphenyl)-7-methylquinazolin-4-yl)pyrrolidin-3-yl)-2-(4-fluorophenyl)-2-hydroxyacetamide] it is over 10 µM.

As to `Cc1ccc2c(N3CCC(NC(=O)[C@H]4CCCO4)C3)nc(-c3ccccc3O)nc2c1` (stereo in doubt) [Example 303, (2R)-Tetrahydro-N—((S)-1-(2-(2-hydroxyphenyl)-7-methylquinazolin-4-yl)pyrrolidin-3-yl)furan-2-carboxamide], the 50% inhibitory concentration (IC50) lay within 2 to 10 µM. In the case of `Cc1ccc2c(N3CC[C@@H](NC(=O)CCc4cccnc4)C3)nc(-c3ccccc3O)nc2c1` [Example 322, N—((R)-1-(2-(2-Hydroxyphenyl)-7-methylquinazolin-4-yl)pyrrolidin-3-yl)-3-(pyridin-3-yl)propanamide], the IC50 is over 10 µM. The figure for `Cc1ccc2c(N3CCN(C(=O)CCc4ccccn4)CC3)nc(-c3ccccc3O)nc2c1` [Example 133, 1-(4-(2-(2-Hydroxyphenyl)-7-methylquinazolin-4-yl)piperazin-1-yl)-3-(pyridin-2-yl)propan-1-one] is 2 to 10 µM; for `Cc1ccc2c(N3CC(CNC(=O)OCC4CCCO4)C3)nc(-c3ccccc3O)nc2c1` (stereo not drawn) [Example 415] it is 2 to 10 µM; for `Cc1ccc2c(N3CC[C@@H](CNC(=O)[C@H]4CCCO4)C3)nc(-c3ccccc3O)nc2c1` [Example 310, (2R)-Tetrahydro-N—(((S)-1-(2-(2-hydroxyphenyl)-7-methylquinazolin-4-yl)pyrrolidin-3-yl)methyl)furan-2-carboxamide] it is 2 to 10 µM. In the case of `O=C(O[C@H]1CCOC1)N1CCN(c2nc(-c3ccccc3O)nc3ccc(F)cc23)CC1` [Example 117, (S)-Tetrahydrofuran-3-yl 4-(6-fluoro-2-(2-hydroxyphenyl)quinazolin-4-yl)piperazine-1-carboxylate] it was 2 to 10 µM; in that of `Cc1ccc2c(N3CCN(C(=O)[C@H](O)CC(C)C)[C@@H](CO)C3)nc(-c3ccccc3O)nc2c1` [Example 106, (R)-2-Hydroxy-1-((R)-2-(hydroxymethyl)-4-(2-(2-hydroxyphenyl)-7-methylquinazolin-4-yl)piperazin-1-yl)-4-methylpentan-1-one], over 10 µM. In the case of `Cc1ccc2c(N3CCC(NC(=O)C(O)C(C)C)CC3)nc(-c3ccccc3O)nc2c1` (stereo not drawn) [Example 264] it was over 10 µM; in that of `Cc1ccc2c(N3CC(CNC(=O)OC(C)C)C3)nc(-c3ccccc3O)nc2c1` [Example 420], under 2 µM.

Take `CCC(C)(O)C(=O)NC1CCN(c2nc(-c3ccccc3O)nc3cc(C)ccc23)CC1` (stereo not drawn) [Example 248, 2-Hydroxy-N-(1-(2-(2-hydroxyphenyl)-7-methylquinazolin-4-yl)piperidin-4-yl)-2-methylbutanamide]: the IC50 was in the range of 2 to 10 µM.

`Cc1ccc2c(N3CCC(NC(=O)C(C)(C)O)CC3)nc(-c3ccccc3O)nc2c1` [Example 233, 2-Hydroxy-N-(1-(2-(2-hydroxyphenyl)-7-methylquinazolin-4-yl)piperidin-4-yl)-2-methylpropanamide]: the IC50 was over 10 µM.

For the molecule `Cc1ccc2c(N3CC[C@@H](NC(=O)c4cccnc4)C3)nc(-c3ccccc3O)nc2c1` [Example 328, N—((R)-1-(2-(2-Hydroxyphenyl)-7-methylquinazolin-4-yl)pyrrolidin-3-yl)nicotinamide], the IC50 is over 10 µM.

For the molecule `CC(C)C[C@@H](O)C(=O)N1CCN(c2nc(-c3ccccc3O)nc3ccccc23)CC1` [Example 102, (R)-2-Hydroxy-1-(4-(2-(2-hydroxyphenyl)quinazolin-4-yl)piperazin-1-yl)-4-methylpentan-1-one], the IC50 lay in the range of 2 to 10 µM.

Regarding `Cc1ccc2c(N3CCN(C(=O)[C@H](O)CC(C)(C)O)CC3)nc(-c3ccccc3O)nc2c1` [Example 164, (R)-2,4-Dihydroxy-1-(4-(2-(2-hydroxyphenyl)-7-methylquinazolin-4-yl)piperazin-1-yl)-4-methylpentan-1-one], the IC50 was over 10 µM.

Regarding `Cc1ccc2c(N3CCC(NC(=O)OCC4CCOC4)CC3)nc(-c3ccccc3O)nc2c1` (stereo not drawn) [Example 275], the IC50 lay within 2 to 10 µM.

As to `Cc1ccc2c(N3CC[C@@H](CNC(=O)OCC(C)C)C3)nc(-c3ccccc3O)nc2c1` [Example 365, Isobutyl ((S)-1-(2-(2-hydroxyphenyl)-7-methylquinazolin-4-yl)pyrrolidin-3-yl)methylcarbamate], the IC50 was under 2 µM.

On to `CC(C)(C)COC(=O)NC[C@@H]1CCN(c2nc(-c3ccccc3O)nc3ccc(F)cc23)C1` [Example 375, Neopentyl ((S)-1-(6-fluoro-2-(2-hydroxyphenyl)quinazolin-4-yl)pyrrolidin-3-yl)methylcarbamate], for which the half-inhibitory concentration (IC50) was over 10 µM. `Cc1ccc2c(N3CCN(C(=O)[C@@H](O)C(C)(C)C)CC3)nc(-c3c(O)cccc3F)nc2c1` [Example 138, (S)-1-(4-(2-(2-Fluoro-6-hydroxyphenyl)-7-methylquinazolin-4-yl)piperazin-1-yl)-2-hydroxy-3,3-dimethylbutan-1-one]: the IC50 was over 10 µM.
